This is an account of results in PMC11116414, “Impact of secretin receptor homo-dimerization on natural ligand binding” (Nature Communications, 2024).

The target of experiment [1] is Cys7-[Tyr10]secretin(1-27) agonist probe. Kind of experiment: cysteine trapping, autoradiograph densitometry. The settings on record: intact COS-1 cells, non-reducing 10% SDS-PAGE, n = 3, read off a plot.
For experiment [2], the target named is Cys6-[Tyr10]secretin(1-27) agonist probe. Kind of experiment: cysteine trapping, autoradiograph densitometry. The following applies: intact COS-1 cells, non-reducing 10% SDS-PAGE, n = 5, read off a plot.
The target in experiment [3] is T1, SecR(G264A,I268A) (Homo sapiens, UniProt P47872, G264A/I268A).
T1 construct: expressed in transfected cells; membranes isolated from these cells
Kind of experiment: KI collisional fluorescence quenching of receptor-bound probes, mutant SecR. The settings on record: KI quencher, mean ± S.E.M., n = 3. The method, then:
(§1) Incubations were terminated by separating receptor-bound ligand from free ligand using centrifugation at 25,000 × g for 10 min at 4 °C. The sample pellet was washed again with ice-cold KRH medium and resuspended in KRH medium for fluorescence measurements. The samples were excited at 481 nm and the emission was collected at 521 nm, with a bandwidth of 5 nm at an integration rate of 0.5 nm/s, and fluorescence intensities were collected by constant wavelength single point analysis using SPEX Fluoromax 3 (Horiba Scientific, Piscataway, NJ) with Origin version 8.1.
(§2) Fluorescence collisional quenching studies were performed using the hydrophilic quenching reagent, potassium iodide (KI), as described previously. Fluorescence intensities of receptor-bound probes were collected by exciting samples at 481 nm using Fluoromax-3 spectrofluorometer single point measurement by Origin version 8.1. […] The effect of ionic strength was determined by measuring fluorescence intensities in potassium chloride. […] The Stern–Volmer quenching constant, KSV, was calculated from the slope of Fo/F as a function of the quencher concentration [I^−].

The target in experiment [4] is T1, SecR(G264A,I268A). Kind of experiment: Fluorescence anisotropy of receptor-bound probes, mutant SecR. The following applies: membranes, 50 nM probe, mean ± S.E.M., n = 3. As for the experimental part:
as §1
(Polarisation of emitted light reports the rotation of a fluorescent probe.)

The target of experiment [5] is T2, WT SecR (Homo sapiens, UniProt P47872).
T2 construct: expressed in transfected cells; membranes isolated from CHO-SecR cells
Kind of experiment: Fluorescence anisotropy of receptor-bound probes, WT SecR. The following applies: for Anisotropy: SecR WT, membranes, 50 nM probe, mean ± S.E.M., n = 3; for anisotropy, + GppNHp vs control, in words: WT SecR, 20 and 37 °C. The method, then: as §1

Experiment [6] addresses T2, WT SecR. The experiment can be described thus: KI collisional fluorescence quenching of receptor-bound probes, WT SecR. The following applies: KI quencher, mean ± S.E.M., n = 3. The method, then:
as §1, §2

Experiment [7] addresses Cys2-[Tyr10]secretin(1-27) agonist probe. Kind of experiment: cysteine trapping, autoradiograph densitometry. The following applies: ECL2 series; intact COS-1 cells; non-reducing 10% SDS-PAGE; n = 4; read off a plot.
[8] abbreviates: +GppNHp (uncoupled state, 10 µM).
[9] abbreviates: control, 20 °C, KRH pH 7.4, ex 481 nm.
Where [10] appears, read: control, 37 °C, KRH pH 7.4, ex 481 nm.
Where [11] appears, read: -GppNHp (active state), 50 nM probe, ex 481/em 521 nm.

T2 sequence (P47872 23-440): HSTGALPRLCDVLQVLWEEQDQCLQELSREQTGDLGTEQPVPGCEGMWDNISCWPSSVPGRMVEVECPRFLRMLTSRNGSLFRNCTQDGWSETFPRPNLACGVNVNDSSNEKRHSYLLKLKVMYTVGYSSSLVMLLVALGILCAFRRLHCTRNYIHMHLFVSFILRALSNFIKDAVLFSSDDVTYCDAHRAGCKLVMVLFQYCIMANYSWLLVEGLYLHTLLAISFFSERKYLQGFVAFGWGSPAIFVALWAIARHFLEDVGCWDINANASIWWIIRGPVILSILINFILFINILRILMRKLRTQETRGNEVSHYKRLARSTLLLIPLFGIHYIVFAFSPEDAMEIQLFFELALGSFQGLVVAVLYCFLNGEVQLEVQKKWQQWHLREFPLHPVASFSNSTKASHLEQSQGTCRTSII
T1 sequence (P47872 23-440 G264A/I268A): as the sequence (P47872 23-440) above, with G242A, I246A counted along it

Regarding “human wild type secretin receptor (SecR WT) (from UniProt P47872) G264A; I268A; A359C”, the other: receptor labeling (% of maximum signal) (% of maximum signal) in experiment [1] (ECL3 series) amounted to 85.
In the case of “human wild type secretin receptor (SecR WT) (from UniProt P47872) G264A; I268A; L374C”, the other: receptor labeling (% of maximum signal) (% of maximum signal) worked out at 77 in experiment [2] (ECL3 series) and 88 in experiment [1] (ECL3 series).
“human wild type secretin receptor (SecR WT) (from UniProt P47872) G264A; I268A; W296C”: the other: receptor labeling (% of maximum signal) (% of maximum signal) in experiment [2] (ECL2 series) is 68.
With `CC(C)C[C@H](NC(=O)CNC(=O)[C@H](CCC(N)=O)NC(=O)[C@H](CC(C)C)NC(=O)[C@H](CCCCNC(=O)c1ccc(-c2c3ccc(=N)c(S(=O)(=O)O)c-3oc3c(S(=O)(=O)O)c(N)ccc23)c(C(=O)O)c1)NC(=O)[C@H](CCCNC(=N)N)NC(=O)[C@H](CCC(N)=O)NC(=O)[C@H](CC(C)C)NC(=O)[C@H](CCCNC(=N)N)NC(=O)[C@H](C)NC(=O)CNC(=O)[C@H](CCC(=O)O)NC(=O)[C@H](CCCNC(=N)N)NC(=O)[C@H](CC(C)C)NC(=O)[C@H](CCCNC(=N)N)NC(=O)[C@H](CO)NC(=O)[C@H](CC(C)C)NC(=O)[C@H](CCC(=O)O)NC(=O)[C@H](CO)NC(=O)[C@@H](NC(=O)[C@H](Cc1ccccc1)NC(=O)[C@@H](NC(=O)CNC(=O)[C@H](CC(=O)O)NC(=O)[C@H](CO)NC(=O)[C@@H](N)Cc1c[nH]cn1)[C@@H](C)O)[C@@H](C)O)C(=O)N[C@H](C(N)=O)C(C)C` [(Lys^22-Alexa^488)Sec], the “Stern-Volmer quenching constant (Ksv)” value on SecR(G264A,I268A) [3] (setting [8]) is reported as 4.3±0.2; at SecR(G264A,I268A) [3] (-GppNHp (active state)) it was 6.1±0.3; on WT SecR [6] (setting [8]), 4.5±0.2; on WT SecR [6] (setting [11]) it was 8.9±1.0. In addition, the Anisotropy turned out to be 0.19 ± 0.01 at SecR(G264A,I268A) [4] (+GppNHp (10 µM), 20 °C); 0.12 ± 0.01 on SecR(G264A,I268A) [4] (+GppNHp (10 µM), 37 °C); 0.18 ± 0.01 at SecR(G264A,I268A) [4] (control, 20 °C); 0.10 ± 0.01 on SecR(G264A,I268A) [4] (control, 37 °C); 0.20 ± 0.02 at WT SecR [5] (+GppNHp (10 µM), 20 °C); 0.12 ± 0.01 at WT SecR [5] (+GppNHp (10 µM), 37 °C). For the same molecule, the results for the Anisotropy on WT SecR [5] (setting [9]) and on WT SecR [5] (setting [10]) were 0.14 ± 0.01 and 0.06 ± 0.01, respectively. For the same molecule, the “anisotropy, + GppNHp vs control, in words” value at WT SecR [5] was “higher anisotropy after treatment with GppNHp than the control state”.
`CC(C)C[C@H](NC(=O)CNC(=O)[C@H](CCC(N)=O)NC(=O)[C@H](CC(C)C)NC(=O)[C@H](CC(C)C)NC(=O)[C@H](CCCNC(=N)N)NC(=O)[C@H](CCC(N)=O)NC(=O)[C@H](CC(C)C)NC(=O)[C@H](CCCNC(=N)N)NC(=O)[C@H](C)NC(=O)CNC(=O)[C@H](CCC(=O)O)NC(=O)[C@H](CCCNC(=N)N)NC(=O)[C@H](CC(C)C)NC(=O)[C@H](CCCNC(=N)N)NC(=O)[C@H](CO)NC(=O)[C@H](CC(C)C)NC(=O)[C@H](CCC(=O)O)NC(=O)[C@H](CO)NC(=O)[C@@H](NC(=O)[C@H](Cc1ccccc1)NC(=O)[C@@H](NC(=O)CNC(=O)[C@H](CC(=O)O)NC(=O)[C@H](CO)NC(=O)[C@@H](N)Cc1c[nH]cn1)[C@@H](C)O)[C@@H](C)O)C(=O)N[C@H](C(=O)NCC(=O)N[C@@H](CSC1CC(=O)N(CCCCCNC(=O)c2ccc(-c3c4ccc(=N)c(S(=O)(=O)O)c-4oc4c(S(=O)(=O)O)c(N)ccc34)c(C(=O)O)c2)C1=O)C(N)=O)C(C)C` (stereo partly drawn) [Sec-Gly^28-(Cys^29-Alexa^488)]: the “Stern-Volmer quenching constant (Ksv)” value at SecR(G264A,I268A) [3] (setting [8]) came to 4.2±0.8; on SecR(G264A,I268A) [3] (-GppNHp (active state)) it was 5.6±1.1; at WT SecR [6] (setting [8]), 4.9±0.4; at WT SecR [6] (setting [11]) it was 6.2±0.7. The Anisotropy on SecR(G264A,I268A) [4] (+GppNHp (10 µM), 20 °C) was determined as 0.15 ± 0.01; at SecR(G264A,I268A) [4] (+GppNHp (10 µM), 37 °C) it was 0.1 ± 0.01; on SecR(G264A,I268A) [4] (control, 20 °C), 0.13 ± 0.01; on SecR(G264A,I268A) [4] (control, 37 °C) it was 0.09 ± 0.01; on WT SecR [5] (+GppNHp (10 µM), 20 °C), 0.13 ± 0.01; at WT SecR [5] (+GppNHp (10 µM), 37 °C) it was 0.08 ± 0.01. For the same molecule, the Anisotropy on WT SecR [5] (setting [9]) came to 0.13 ± 0.01; on WT SecR [5] (setting [10]) it was 0.08 ± 0.01.
In the case of `CC(C)C[C@H](NC(=O)CNC(=O)[C@H](CCC(N)=O)NC(=O)[C@H](CC(C)C)NC(=O)[C@H](CC(C)C)NC(=O)[C@H](CCCNC(=N)N)NC(=O)[C@H](CCC(N)=O)NC(=O)[C@H](CC(C)C)NC(=O)[C@H](CCCNC(=N)N)NC(=O)[C@H](C)NC(=O)CNC(=O)[C@H](CCC(=O)O)NC(=O)[C@H](CCCNC(=N)N)NC(=O)[C@H](CCCCNC(=O)c1ccc(-c2c3ccc(=N)c(S(=O)(=O)O)c-3oc3c(S(=O)(=O)O)c(N)ccc23)c(C(=O)O)c1)NC(=O)[C@H](CCCNC(=N)N)NC(=O)[C@H](CO)NC(=O)[C@H](CC(C)C)NC(=O)[C@H](CCC(=O)O)NC(=O)[C@H](CO)NC(=O)[C@@H](NC(=O)[C@H](Cc1ccccc1)NC(=O)[C@@H](NC(=O)CNC(=O)[C@H](CC(=O)O)NC(=O)[C@H](CO)NC(=O)[C@@H](N)Cc1c[nH]cn1)[C@@H](C)O)[C@@H](C)O)C(=O)N[C@H](C(N)=O)C(C)C` [(Lys^13-Alexa^488)Sec], the “Stern-Volmer quenching constant (Ksv)” value on SecR(G264A,I268A) [3] (setting [8]) came out at 4.5±0.9; at SecR(G264A,I268A) [3] (-GppNHp (active state)), 5.2±0.4; on WT SecR [6] (setting [8]), 3.9±02; on WT SecR [6] (setting [11]) it was 7.9±0.6. In addition, the Anisotropy on SecR(G264A,I268A) [4] (+GppNHp (10 µM), 20 °C) was 0.20 ± 0.01; on SecR(G264A,I268A) [4] (+GppNHp (10 µM), 37 °C), 0.11 ± 0.01; on SecR(G264A,I268A) [4] (control, 20 °C), 0.18 ± 0.02; at SecR(G264A,I268A) [4] (control, 37 °C) it was 0.11 ± 0.01; on WT SecR [5] (+GppNHp (10 µM), 20 °C) it was 0.20 ± 0.02; at WT SecR [5] (+GppNHp (10 µM), 37 °C), 0.12 ± 0.01. For the same molecule, the Anisotropy on WT SecR [5] (setting [9]) is given as 0.14 ± 0.01; on WT SecR [5] (setting [10]), 0.06 ± 0.01. Also, at WT SecR [5], the “anisotropy, + GppNHp vs control, in words” value is given as “higher anisotropy after treatment with GppNHp than the control state”.
Regarding “human wild type secretin receptor (SecR WT) (from UniProt P47872) G264A; I268A; W295C”, the other: receptor labeling (% of maximum signal) (% of maximum signal) in experiment [1] (ECL2 series) was found to be 83; in experiment [7], 93.
“human wild type secretin receptor (SecR WT) (from UniProt P47872) G264A; I268A; I288C” returned an other: receptor labeling (% of maximum signal) (% of maximum signal) in experiment [1] (ECL2 series) of 68.
